These results are taken from patent publication US20240109881A1, “Heteroaryl Compounds as Ligand Directed Degraders of IRAK4” (Bristol-Myers Squibb Company, priority 2022, published 2024).

For this assay, the target named is T1, IRAK4 (Homo sapiens, UniProt Q9NWZ3).
T1 construct: endogenous in cells; host or cells: THP-1 cells
T1 sequence (Q9NWZ3 1-460): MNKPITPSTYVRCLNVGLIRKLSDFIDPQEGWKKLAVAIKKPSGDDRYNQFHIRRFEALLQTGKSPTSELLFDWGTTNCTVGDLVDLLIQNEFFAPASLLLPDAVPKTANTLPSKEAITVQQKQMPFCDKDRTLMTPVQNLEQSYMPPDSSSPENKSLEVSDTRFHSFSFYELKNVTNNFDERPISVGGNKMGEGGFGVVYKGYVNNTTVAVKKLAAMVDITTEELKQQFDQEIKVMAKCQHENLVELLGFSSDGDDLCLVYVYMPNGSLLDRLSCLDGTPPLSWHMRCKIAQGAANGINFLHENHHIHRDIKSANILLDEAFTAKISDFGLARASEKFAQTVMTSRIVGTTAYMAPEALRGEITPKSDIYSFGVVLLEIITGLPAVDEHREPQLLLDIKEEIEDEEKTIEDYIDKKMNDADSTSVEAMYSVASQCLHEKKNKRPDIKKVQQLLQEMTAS
Description: LVL THP1 HTRF (THP1 Homogeneous Time Resolved Fluorescence). The conditions noted are these: THP1 cells, 18 h incubation with compound; for DC50: read-out: LVL THP1 HTRF EC50. In kind it is cell-based. The essentials: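 IRAK4 HTRF read-out (665/615 nm ratio, anti-IRAK4 d2 acceptor and K donor, 18 h dark incubation at room temperature) on lysates of THP-1 cells. Cells were treated 18 h at 37° C. with 20 nL compound in DMSO, in colorless RPMI with 10% FBS, with a duplicate CTG plate.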
Background: Time-resolved FRET reads energy transfer from a long-lived donor to a nearby acceptor.

As for `CC(F)(F)CNc1cc(-n2ncc3cc(C#N)cnc32)ncc1-n1cc([C@H]2CC[C@H](CCN3CCN(c4ccc(C5CCC(=O)NC5=O)cc4)CC3)CC2)nn1` (some centres unmarked) [P-169], the DC50 turned out to be 26 nM.

For `Cc1cc(N2CCC(=O)NC2=O)ccc1N1CCN(CC[C@H]2CC[C@H](c3cn(-c4cnc(-n5ncc6cc(C#N)cnc65)cc4N[C@H](C)C#N)nn3)CC2)CC1` [P-360], the “LVL THP1 HTRF YMIN” value was determined as 4.5% and the DC50 was found to be 27.6 nM.

As to `C[C@H](C#N)Nc1cc(-n2ncc3cc(C#N)cnc32)ncc1C(=O)N[C@H]1CC[C@H](CCN2CC[C@@H](c3ccc([C@@]4(C)CCC(=O)NC4=O)cc3)C[C@@H]2C)CC1` [P-271], the “LVL THP1 HTRF YMIN” value is reported as 9.9% and the DC50 was determined as 18.8 nM.

`C[C@H](C#N)Nc1cc(-n2ncc3cc(C#N)cnc32)ncc1-n1cc([C@H]2CC[C@H](CCN3CCC(c4ccc5c(N6CCC(=O)NC6=O)nn(C)c5c4)CC3)CC2)nn1` [P-476]: the “LVL THP1 HTRF YMIN” value is reported as 0.9% and the DC50 came to 2 nM.

For the molecule `C[C@H](C#N)Nc1cc(Nc2ncc(C#N)cc2Cl)ncc1-n1cc([C@H]2CC[C@H](CCN3CCN(c4ccc(N5CCC(=O)NC5=O)cc4)[C@H](C)C3)CC2)nn1` [P-378], the “LVL THP1 HTRF YMIN” value is on record as 2.2% and the DC50 worked out at 13 nM.

As for `C[C@H](C#N)Nc1cc(-n2ncc3cc(C#N)c(N)nc32)ncc1-n1cc([C@H]2CC[C@H](CCN3CCN(c4ccc([C@@]5(C)CCC(=O)NC5=O)cc4)CC3)CC2)nn1` [P-222], the DC50 stood at 7 nM.

As to `C[C@H](C#N)Nc1cc(-n2ncc3cc(C#N)cnc32)ncc1C(=O)N[C@H]1CC[C@H](CCN2CCN(c3ccc(C4CCC(=O)NC4=O)cc3)C3(COC3)C2)CC1` (some centres unmarked) [P-190], the “LVL THP1 HTRF YMIN” value is recorded as 24.9% and the DC50 was 158 nM.

`CC[C@@H]1CN(CC[C@H]2CC[C@H](c3cn(-c4cnc(-n5ncc6cc(C#N)c(N)nc65)cc4N[C@H](C)C#N)nn3)CC2)CCN1c1ccc(N2CCC(=O)NC2=O)cn1` [P-446]: the “LVL THP1 HTRF YMIN” value was −1.4% and the DC50 amounted to 1.4 nM.

In the case of `C[C@H](C#N)Nc1cc(-n2ncc3cncnc32)ncc1-n1cc(C2CCC(CCN3CCN(c4ccc(C5CCC(=O)NC5=O)cc4)CC3)CC2)nn1` (some centres unmarked) [P-218], the “LVL THP1 HTRF YMIN” value was determined as 4.3%.

For `C[C@H](C#N)Nc1cc(-n2ncc3cc(C#N)cnc32)ncc1C(=O)N[C@H]1CC[C@H](CCN2CCN(c3ccc(N4CCC(=O)NC4=O)cc3)CC2)CC1` [P-321], the “LVL THP1 HTRF YMIN” value worked out at 24.2% and the DC50 worked out at 645 nM.

Turning to `C[C@H](C#N)Nc1cc(-n2ncc3cc(C#N)cnc32)ncc1C(=O)N[C@H]1CC[C@H](CCN2CC3COCC(C2)N3c2ccc(C3CCC(=O)NC3=O)cc2)CC1` (some centres unmarked) [P-194], the “LVL THP1 HTRF YMIN” value was 39.8% and the DC50 amounted to 4040 nM.

As for `C[C@H](C#N)Nc1cc(-n2ncc3cc(C#N)cnc32)ncc1-n1cc([C@H]2CC[C@H](CCN3CCN(c4ccc(N5CCC(=O)NC5=O)c(F)c4)[C@H](C)C3)CC2)nn1` [P-436], the “LVL THP1 HTRF YMIN” value is reported as −5.4% and the DC50 was determined as 0.3 nM.

For the molecule `C[C@H](C#N)Nc1cc(-n2ncc3cc(C#N)c(N)nc32)ncc1-n1cc(C2CCC(CCN3CCN(c4ccc(C5CCC(=O)NC5=O)cc4)[C@@H](C)C3)CC2)nn1` (some centres unmarked) [P-219], the “LVL THP1 HTRF YMIN” value is recorded as 1.8% and the DC50 was found to be 6 nM.

For the molecule `C[C@H](C#N)Nc1cc(-n2ncc3cc(C#N)c(N)nc32)ncc1-n1cc([C@H]2CC[C@H](CCN3CCN(c4ccc([C@@]5(C)CCC(=O)NC5=O)cc4)[C@H](C)C3)CC2)nn1` (stereo in doubt) [P-260], the “LVL THP1 HTRF YMIN” value is 7.6% and the DC50 came out at 17 nM.

As to `C[C@H](C#N)Nc1cc(-n2ncc3cc(C#N)cnc32)ncc1-n1cc([C@H]2CC[C@H](CCN3CCCN(c4ccc(N5CCC(=O)NC5=O)cc4)CC3)CC2)nn1` [P-355], the “LVL THP1 HTRF YMIN” value is reported as 58.0% and the DC50 came out at 327 nM.

On to `C[C@H](C#N)Nc1cc(-n2ncc3cc(C#N)cnc32)ncc1-n1cc(C2CCC(CCN3CCN(c4ccc(C5CCC(=O)NC5=O)cc4)C4COCC43)CC2)nn1` (single isomer, unassigned) [P-235], for which the “LVL THP1 HTRF YMIN” value is 2.6% and the DC50 was found to be 29 nM.

Take `C[C@H](C#N)Nc1cc(-n2ncc3cc(C#N)cnc32)ncc1-n1cc([C@H]2CC[C@H](CCN3CC[C@H]4[C@@H]3CCN4c3ccc(N4CCC(=O)NC4=O)c(Cl)c3)CC2)nn1` (single isomer, unassigned) [P-464]: the “LVL THP1 HTRF YMIN” value is recorded as −7.1% and the DC50 worked out at 0.7 nM.

Turning to `C[C@H](C#N)Nc1cc(-n2ncc3cc(C#N)c(N)nc32)ncc1-n1cc([C@H]2CC[C@H](CCN3CCN(c4cnc([C@@]5(C)CCC(=O)NC5=O)cn4)CC3)CC2)nn1` (single isomer, unassigned) [P-267], the “LVL THP1 HTRF YMIN” value came out at 54.7% and the DC50 amounted to 94.7 nM.

`C[C@H](C#N)Nc1cc(-n2ncc3cc(C#N)cnc32)ncc1-n1cc([C@H]2CC[C@H](CCN3CC[C@H]4[C@@H]3CCN4c3ccc([C@@]4(C)CCC(=O)NC4=O)cc3)CC2)nn1` (single isomer, unassigned) [P-462]: the “LVL THP1 HTRF YMIN” value was 3.3% and the DC50 was 6.1 nM.

For `CC[C@@H]1CN(CC[C@H]2CC[C@H](c3cn(-c4cnc(-n5ncc6cc(C#N)cnc65)cc4N[C@H](C)C#N)nn3)CC2)CCN1c1ccc(C2CCC(=O)NC2=O)cc1` (some centres unmarked) [P-452], the “LVL THP1 HTRF YMIN” value is listed as 0.5% and the DC50 was found to be 1.9 nM.

With `C[C@H](C#N)Nc1cc(-n2ncc3cc(C#N)cnc32)ncc1C(=O)N[C@H]1CC[C@H](CCN2CC3CC2CN3c2ccc(C3CCC(=O)NC3=O)cc2)CC1` (some centres unmarked) [P-179], the “LVL THP1 HTRF YMIN” value was found to be 2.0% and the DC50 was 65 nM.

For the molecule `C[C@H](C#N)Nc1cc(-n2ncc3cc(C#N)cnc32)ncc1C(=O)N[C@H]1CC[C@H](CCN2CCC(c3ccn(C4CCC(=O)NC4=O)c(=O)c3)CC2)CC1` (some centres unmarked) [P-425], the “LVL THP1 HTRF YMIN” value was found to be 0.8% and the DC50 worked out at 124 nM.

In the case of `C[C@H](C#N)Nc1cc(-n2ncc3cc(C#N)cnc32)ncc1-n1cc([C@H]2CC[C@H](CCN3CC[C@H]4[C@@H]3CCN4c3ccc(C4CCC(=O)NC4=O)cc3)CC2)nn1` (single isomer, unassigned) [P-327], the “LVL THP1 HTRF YMIN” value is 2.2% and the DC50 was 2.8 nM.

Take `C[C@H](C#N)Nc1cc(Nc2ncc(C#N)cc2Cl)ncc1-n1cc([C@H]2CC[C@H](CCN3CC[C@H]4[C@@H]3CCN4c3ccc(N4CCC(=O)NC4=O)cc3)CC2)nn1` (single isomer, unassigned) [P-500]: the “LVL THP1 HTRF YMIN” value is −0.52% and the DC50 is 43.4 nM.

As to `C[C@H](C#N)Nc1cc(-n2ncc3cc(C#N)c(N)nc32)ncc1-n1cc([C@H]2CC[C@H](CCN3CCC(c4ccc(C5CCC(=O)NC5=O)cc4)CC3)CC2)nn1` (some centres unmarked) [P-214], the DC50 was < 1 nM.

`C[C@H](C#N)Nc1cc(-n2ncc3cc(C#N)cnc32)ncc1-n1cc(C2CCC(CCN3C[C@H](C)N(c4ccc([C@@]5(C)CCC(=O)NC5=O)cc4)C[C@H]3C)CC2)nn1` (some centres unmarked) [P-244]: the “LVL THP1 HTRF YMIN” value is on record as 3.5% and the DC50 was 56 nM.

As to `CC[C@H](C#N)Nc1cc(-n2ncc3cc(C#N)cnc32)ncc1-n1cc([C@H]2CC[C@H](CCN3CCN(c4ccc(C5CCC(=O)NC5=O)cc4)CC3)CC2)nn1` (stereo in doubt) [P-392], the “LVL THP1 HTRF YMIN” value is 3.5% and the DC50 amounted to 8.7 nM.

In the case of `C[C@H](C#N)Nc1nc(-n2ncc3cc(C#N)cnc32)ncc1C(=O)N[C@H]1CC[C@H](CCN2CCN(c3ccc(C4CCC(=O)NC4=O)cc3)CC2)CC1` (some centres unmarked) [P-376], the “LVL THP1 HTRF YMIN” value is reported as 7.2% and the DC50 is 30.3 nM.

Regarding `C[C@H](C#N)Nc1cc(-n2ncc3cc(C#N)cnc32)ncc1C(=O)N[C@H]1CC[C@H](CCN2CCC(c3ccc([C@@]4(F)CCC(=O)NC4=O)cc3)CC2)CC1` (single isomer, unassigned) [P-430], the “LVL THP1 HTRF YMIN” value is reported as −0.4% and the DC50 worked out at 5.5 nM.

As to `C[C@H](C#N)Nc1cc(-n2ncc3cc(C#N)c(N)nc32)ncc1-n1cc([C@H]2CC[C@H](CCN3[C@H](C)CN(c4ccc([C@@]5(C)CCC(=O)NC5=O)cn4)C[C@H]3C)CC2)nn1` (single isomer, unassigned) [P-253], the “LVL THP1 HTRF YMIN” value is listed as 9.4% and the DC50 is 48.7 nM.

Take `C[C@H](C#N)Nc1cc(-n2ncc3cc(C#N)c(N)nc32)ncc1-n1cc([C@H]2CC[C@H](CCN3CC[C@H]4[C@@H]3CCN4c3ccc([C@@]4(C)CCC(=O)NC4=O)cc3)CC2)nn1` (single isomer, unassigned) [P-487]: the “LVL THP1 HTRF YMIN” value worked out at 2.7% and the DC50 amounted to 8 nM.

Regarding `C[C@H](C#N)Nc1cc(-n2ncc3cc(C#N)c(N4C[C@H]5C[C@@H]4CO5)nc32)ncc1-n1cc([C@H]2CC[C@H](CCN3CCN(c4ccc([C@@]5(C)CCC(=O)NC5=O)cc4)CC3)CC2)nn1` [P-269], the “LVL THP1 HTRF YMIN” value turned out to be 6.3% and the DC50 amounted to 11.8 nM.

Consider `C[C@H](C#N)Nc1cc(-n2ncc3cc(C#N)cnc32)ncc1-n1cc([C@H]2CC[C@H](CCN3CCC(c4ccc(C5(O)CCC(=O)NC5=O)cc4)CC3)CC2)nn1` (some centres unmarked) [P-339], for which the “LVL THP1 HTRF YMIN” value came out at 93.1% and the DC50 was found to be 18.6 nM.
